Data published in PMC11311842, “Radiosynthesis and Preclinical Evaluation of ^18F-Labeled Estradiol Derivatives with Different Lipophilicity for PET Imaging of Breast Cancer” (Cancers, 2024).
“Also recorded” adds a separate entry of the source.

Tests used:
[1] = system: T47D (ER+) and MDA-MB-231 (ER-) tumor-bearing nude mice; experiment: Biodistribution in tumor-bearing nude mice; type: in vivo
Method: (§1) Female NMRI nude mice (Crl:NMRI-Foxn1^nu) were purchased from Charles River (Charles River Laboratories Inc., Wilmington, MA, USA) at the age of four weeks and kept in groups of four to five animals in individually ventilated cages in a twelve hours dark/light cycle, with unlimited access to water and standard chow. At the age of nine to ten weeks, one 17β-estradiol pellet per animal (0.72 mg per pellet, 3 mm diameter) with a 60-day release time (Innovative Research of America, Sarasota, FL, USA) was subcutaneously implanted on the back under isoflurane anesthesia. After three days, approximately 2–3 × 10^6 MCF-7, T47D or MDA-MB-231 tumor cells (in 50 µL PBS) were mixed with Matrigel (50 µL, BD Biosciences, Becton, Dickinson and Company, Franklin Lakes, NJ, USA) and injected subcutaneously to the back of the mice. Tumor diameters and weight of the animals were recorded five times a week. Biodistribution or imaging studies were performed three–four weeks after the inoculation of the cells.
For biodistribution experiments, nude mice bearing T47D and MDA-MB-231 tumors (n = 3, per group) were injected with ^18F-TA-Glyco-EE (2–4 MBq) under isoflurane anesthesia. After 30, 60 or 90 min, the mice were sacrificed by cervical dislocation. Blood, as well as organs and tissue from the lung, liver, kidneys, heart, spleen, brain, muscle, femur and tumors, were harvested and measured for radioactivity in the γ-counter (Wallac Wizard, PerkinElmer, Waltham, MA, USA). The samples were weighed, and the radioactivity of each tissue sample was calculated as a percentage of the total injected dose per gram tissue (%ID/g).

[2] = Stability in human serum and plasma in vitro (radio-HPLC); type: in vitro ADME; settings: 37 °C
Method: An aliquot of the formulated tracer solution (40 µL containing approx. 10 MBq in 0.9% NaCl) was incubated with 200 µL of human plasma (Hölzel Diagnostika Handels GmbH, from CosmoBio USA, Carlsbad, CA, USA) or human serum (Biochrom GmbH, Merck KGaA, Darmstadt, Germany), respectively, at 37 °C. After various time points (5–120 min), aliquots (30 µL) were taken and quenched in methanol or 10% TFA (30 µL). The samples were centrifuged for 3 min, and subsequently the supernatants were analyzed by radio-HPLC (Chromolith RP-18e, 100 × 4.6 mm, 10–100% acetonitrile (with 0.1% TFA) in water (with 0.1% TFA) over 5 min, 4 mL/min).

[3] = system: MCF-7 (ER+) tumor-bearing nude mice; experiment: Small animal PET imaging; type: in vivo
Method: as §1, with “cells. […] Dynamic images were acquired for 60 min, starting with the injection of the radiotracer. […] Regions of interest (ROIs) were drawn over the tumor, and the mean radioactivity concentration within these regions was obtained from the mean values and calculated as a percentage of the total injected dose per gram tissue (%ID/g).” for “cells.”

[4] = Plasma protein binding (MicroSpin G-50 columns); type: in vitro ADME; settings: human plasma, 10 min, 37 °C
Method: MicroSPin G-50 columns (Cytiva, Merck KGaA, Darmstadt, Germany) were preconditioned according to the manufacturer’s protocol and the experiment was performed as follows. In brief, an aliquot of the tracer (1 µL, approx. 250 kBq) was added to NaCl (0.9%, 200 µL, negative control) or human plasma (200 µL) and incubated for 10 min at 37 °C. A sample from the plasma or negative control (40 µL) was carefully added to the resin, and the column was placed in an Eppendorf tube. After centrifugation (2 min, 2000× g), the eluate and the resin were collected separately. Both were measured for radioactivity using a γ-counter (Wallac Wizard, PerkinElmer, Waltham, MA, USA), and the radioactivity eluted from the resin was calculated as a percentage of the total amount of radioactivity. The determination of plasma protein binding was performed twice in duplicate.

CC(=O)OC1C(C[18F])OC(n2cc(C3(O)CCC4C5CCc6cc(O)ccc6C5CCC43C)nn2)C(OC(C)=O)C1OC(C)=O (centres unmarked) [^18F-TA-Glyco-EE]
Uptake in MDA-MB-231 tumors ([1]; 30 min p.i.): 0.9 %ID/g
Uptake in T47D tumors ([1]; 30 min p.i.): 1.0 %ID/g
Uptake in intestine ([1]; 30 min p.i.): 10 %ID/g
Uptake in liver ([1]; 30 min p.i.): 13 %ID/g
Tumor uptake ER+ T47D versus ER- MDA-MB-231 ([1]; 60 min and 90 min p.i., multiple t-test): statistically significant differences
Uptake in liver ([1]; 90 min p.i.): 1.2 %ID/g
Uptake in blood and all other non-target organs ([1]; all time points (30, 60, 90 min p.i.)): low
Uptake in T47D or MDA-MB-231 tumors ([1]; as summarised in the discussion): < 1 %ID/g
Uptake in liver and intestine ([1]; decreasing over 90 min): less than 3 %ID/g
Stability in human serum and plasma (in words) ([2]; over 120 min, radio-HPLC): rapidly deacetylated in serum and plasma
Stability in Human Serum or Plasma ([2]; after 30 min, same for serum and plasma, deacetylation observed): 0% after 30 min ^2,5
Uptake in MCF-7 tumors (PET) ([3]; 60 min p.i.): around 1 %ID/g
Tumor uptake, non-treated versus fulvestrant-treated animals (PET) ([3]; fulvestrant 0.5 mg s.c., second scan 48 h later, n = 4): significantly reduced tumor uptake on PET scans in one of the four animals; also recorded: did not show a significant difference
Plasma Protein Binding [4]: 79 ± 1%
